Measurements: patent publication US12146004B2, “Polymyxin compounds and uses thereof” (priority 2014, dated 2024)
Converted amounts (≈) assume the structure as drawn. Like-named read-outs stand apart in the source and are kept apart here.

Legend:
Format in all cases: cell-based
Acinetobacter baumannii = tested on: Acinetobacter baumannii
Procedure: (§1) To evaluate the potency and spectrum of the compounds, susceptibility testing was performed against up to nine strains of each of the Gram negative pathogens, Escherichia coli, Pseudomonas aeruginosa, Klebsiella pneumoniae and Acinetobacter baumannii.
(§2) The values in Table 2 are MIC (μg/mL) against strains of E. coli, K. pneumoniae, P. aeruginosa and A. baumanii, including strains which show elevated MICs to Polymyxin.
(§3) The values in Table 2A are MIC (μg/mL).
(§4) The in vitro activity of compounds 26 and C7 (FADDI-02) against resistant bacterial strains was compared. The resistant strains included including Escherichia coli, Pseudomonas aeruginosa, Klebsiella pneumoniae and Acinetobacter baumannii strains. The data is provided in Table 2C, where the strains are identified. The values in Table 2 are MIC (μg/mL).

Klebsiella pneumoniae = tested on: Klebsiella pneumoniae
Procedure: as §1, §2, §3, §4

Escherichia coli = tested on: Escherichia coli
Procedure: as §1, §2, §3, §4

Pseudomonas aeruginosa = tested on: Pseudomonas aeruginosa
Procedure: as §1, §2, §3, §4

| SMILES | MIC A. baumanii ATCC BAA-747 (Acinetobacter baumannii; strain ATCC BAA-747) [mg/L] | MIC A. baumanii NCTC 13424 (Acinetobacter baumannii; strain NCTC 13424) [mg/L] | MIC K. pneumoniae 065 (Klebsiella pneumoniae; strain 065) [mg/L] | MIC K. pneumoniae ATCC 13882 (Klebsiella pneumoniae; strain ATCC 13882) [mg/L] | MIC E. coli 058 (Escherichia coli; strain 058) [mg/L] | MIC E. coli ATCC 25922 (Escherichia coli; strain ATCC 25922) [mg/L] | MIC P. aeruginosa ATCC 27853 (Pseudomonas aeruginosa; strain ATCC 27853) [mg/L] | MIC P. aeruginosa CCUG 59347 (Pseudomonas aeruginosa; strain CCUG 59347) [mg/L] | MIC A. baumanii 056 (Acinetobacter baumannii) [mg/L] | MIC A. baumanii ATCC BAA-747 (Acinetobacter baumannii) [mg/L] | MIC K. pneumoniae 063 (Klebsiella pneumoniae) [mg/L] | MIC K. pneumoniae 065 (Klebsiella pneumoniae) [mg/L] | MIC E. coli 058 (Escherichia coli) [mg/L] | MIC E. coli 061 (Escherichia coli) [mg/L] | MIC E. coli ATCC 25922 (Escherichia coli) [mg/L] | MIC P. aeruginosa 068 (Pseudomonas aeruginosa) [mg/L] | MIC P. aeruginosa 070 (Pseudomonas aeruginosa) [mg/L] | MIC P. aeruginosa ATCC 27853 (Pseudomonas aeruginosa) [mg/L] | MIC A. baumanii NCTC 13424 (Acinetobacter baumannii) [mg/L] | MIC K. pneumoniae ATCC 13882 (Klebsiella pneumoniae) [mg/L] | further results |
| --- | --- | --- | --- | --- | --- | --- | --- | --- | --- | --- | --- | --- | --- | --- | --- | --- | --- | --- | --- | --- | --- |
| CC(C)C[C@@H]1NC(=O)[C@@H](CC2CCCCC2)NC(=O)[C@H](CCN)NC(=O)[C@@H](NC(=O)[C@H](CCN)NC(=O)[C@@H](NC(=O)CC(CN)C2CCCCC2)[C@@H](C)O)CCNC(=O)[C@H]([C@@H](C)O)NC(=O)[C@H](CCN)NC(=O)[C@H](CCN)NC1=O (single isomer, unassigned; isomer 1) [Example 86, 4-amino-3-cyclohexylbutanoyl polymyxin [D-cyclohexylalanine-6]nonapeptide. Isomer 1] | 0.125 (≈ 0.11 µM) | 0.125 (≈ 0.11 µM) | 8 (≈ 7.04 µM) | 0.5 (≈ 0.44 µM) | 8 (≈ 7.04 µM) | 0.125 (≈ 0.11 µM) | 0.25 (≈ 0.22 µM) | 0.5 (≈ 0.44 µM) | – | – | – | – | – | – | – | – | – | – | – | – | MIC A. baumanii 053 (Acinetobacter baumannii; strain 053): >64 mg/L; MIC A. baumanii 056 (Acinetobacter baumannii; strain 056): 64 mg/L (≈ 56.3 µM); MIC K. pneumoniae 063 (Klebsiella pneumoniae; strain 063): >64 mg/L; MIC E. coli 061 (Escherichia coli; strain 061): 32 mg/L (≈ 28.2 µM); MIC E. coli NCTC 9001 (Escherichia coli; strain NCTC 9001): 0.06 mg/L (≈ 0.0528 µM); MIC P. aeruginosa 070 (Pseudomonas aeruginosa; strain 070): 8 mg/L (≈ 7.04 µM) |
| CC(C)C[C@@H]1NC(=O)[C@@H](CC2CCCCC2)NC(=O)[C@H](CCN)NC(=O)[C@@H](NC(=O)[C@H](CCN)NC(=O)[C@@H](NC(=O)CC(CN)CC2CCCCC2)[C@@H](C)O)CCNC(=O)[C@H]([C@@H](C)O)NC(=O)[C@H](CCN)NC(=O)[C@H](CCN)NC1=O (single isomer, unassigned; isomer 1) [Example 91, 4-amino-3-(cyclohexylmethyl) butanoyl polymyxin [D-cyclohexylalanine-6]nonapeptide. Isomer 1] | 0.25 (≈ 0.217 µM) | 0.125 (≈ 0.109 µM) | 4 (≈ 3.48 µM) | 0.25 (≈ 0.217 µM) | 4 (≈ 3.48 µM) | 0.125 (≈ 0.109 µM) | 0.25 (≈ 0.217 µM) | 0.5 (≈ 0.435 µM) | – | – | – | – | – | – | – | – | – | – | – | – | – |
| CCCCCC/C=C/c1ccc(C[C@H]2NC(=O)[C@H](CCN)NC(=O)[C@@H](NC(=O)[C@H](CN)NC(=O)[C@@H](NC(=O)C3CNCC(CC(C)C)C3)C(C)O)CCNC(=O)[C@H]([C@@H](C)O)NC(=O)[C@H](CCN)NC(=O)[C@H](CCN)NC(=O)[C@H](CC(C)C)NC2=O)cc1 (single isomer, unassigned; isomer 2) [Example 18, (trans-5-(isobutyl-piperidine)-3-carbonyl L-Thr-L-Dap-polymyxin [D-(4-(E)-oct-1-enyl)-Phe]-6]heptapeptide Isomer 2] | – | – | – | – | – | – | – | – | 2 (≈ 1.63 µM) | 2 (≈ 1.63 µM) | 4 (≈ 3.26 µM) | 2 (≈ 1.63 µM) | 2 (≈ 1.63 µM) | 2 (≈ 1.63 µM) | 2 (≈ 1.63 µM) | 4 (≈ 3.26 µM) | 4 (≈ 3.26 µM) | 2 (≈ 1.63 µM) | – | – | MIC A. baumanii 053 (Acinetobacter baumannii): 2 mg/L (≈ 1.63 µM); MIC K. pneumoniae 062 (Klebsiella pneumoniae): 2 mg/L (≈ 1.63 µM); MIC K. pneumoniae 064 (Klebsiella pneumoniae): 4 mg/L (≈ 3.26 µM); MIC K. pneumoniae 066 (Klebsiella pneumoniae): 2 mg/L (≈ 1.63 µM); MIC K. pneumoniae 067 (Klebsiella pneumoniae): 4 mg/L (≈ 3.26 µM); MIC K. pneumoniae ATCC 4352 (Klebsiella pneumoniae): 2 mg/L (≈ 1.63 µM); MIC E. coli 059 (Escherichia coli): 1 mg/L (≈ 0.815 µM); MIC E. coli 060 (Escherichia coli): 2 mg/L (≈ 1.63 µM) |
| CC(C)C[C@@H]1NC(=O)[C@@H](CC2CCCCC2)NC(=O)[C@H](CCN)NC(=O)[C@@H](NC(=O)[C@H](CCN)NC(=O)[C@@H](NC(=O)C(CCN)Cc2ccccc2)C(C)O)CCNC(=O)[C@H]([C@@H](C)O)NC(=O)[C@H](CCN)NC(=O)[C@H](CCN)NC1=O (single isomer, unassigned; isomer 2) [Example 36, 4-amino-2-benzylbutanoyl-polymyxin [D-cyclohexylalanine]-6 nonapeptide. isomer 2] | – | – | – | – | – | – | – | – | – | 1 (≈ 0.874 µM) | – | 2 (≈ 1.75 µM) | 8 (≈ 6.99 µM) | – | 0.125 (≈ 0.109 µM) | – | – | 0.5 (≈ 0.437 µM) | 2 (≈ 1.75 µM) | 0.125 (≈ 0.109 µM) | MIC P. aeruginosa CCUG 59347 (Pseudomonas aeruginosa): 0.5 mg/L (≈ 0.437 µM) |
| CC(C)C[C@@H]1NC(=O)[C@@H](CC2CCCCC2)NC(=O)[C@H](CCN)NC(=O)[C@@H](NC(=O)[C@H](CN)NC(=O)[C@@H](NC(=O)CC(CN)C2CCCCC2)C(C)O)CCNC(=O)[C@H]([C@@H](C)O)NC(=O)[C@H](CCN)NC(=O)[C@H](CCN)NC1=O (single isomer, unassigned; isomer 2) [Example 43, 4-amino-3-cyclohexylbutanoyl L-Thr-L-Dap-polymyxin [D-cyclohexylalanine]-6 heptapeptide. isomer 2] | 0.125 (≈ 0.111 µM) | 0.25 (≈ 0.223 µM) | 0.5 (≈ 0.445 µM) | 0.25 (≈ 0.223 µM) | 1 (≈ 0.891 µM) | 0.25 (≈ 0.223 µM) | 0.25 (≈ 0.223 µM) | 0.25 (≈ 0.223 µM) | – | – | – | – | – | – | – | – | – | – | – | – | MIC A. baumanii 053 (Acinetobacter baumannii; strain 053): 64 mg/L (≈ 57 µM); MIC A. baumanii 056 (Acinetobacter baumannii; strain 056): 32 mg/L (≈ 28.5 µM); MIC K. pneumoniae 063 (Klebsiella pneumoniae; strain 063): 16 mg/L (≈ 14.3 µM); MIC E. coli 061 (Escherichia coli; strain 061): 8 mg/L (≈ 7.13 µM); MIC E. coli NCTC 9001 (Escherichia coli; strain NCTC 9001): 0.06 mg/L (≈ 0.0535 µM); MIC P. aeruginosa 068 (Pseudomonas aeruginosa; strain 068): 2 mg/L (≈ 1.78 µM); MIC P. aeruginosa 070 (Pseudomonas aeruginosa; strain 070): 2 mg/L (≈ 1.78 µM) |
| CC(C)C[C@@H]1NC(=O)[C@@H](CC2CCCCC2)NC(=O)[C@H](CCN)NC(=O)[C@@H](NC(=O)[C@H](CN)NC(=O)[C@@H](NC(=O)C(CCN)c2ccc(F)cc2)C(C)O)CCNC(=O)[C@H]([C@@H](C)O)NC(=O)[C@H](CCN)NC(=O)[C@H](CCN)NC1=O (single isomer, unassigned; isomer 2) [Example 44, 4-amino-2-(4-fluorophenyl) butanoyl L-Thr-L-Dap-polymyxin [D-cyclohexylalanine]-6 heptapeptide. Isomer 2] | – | – | – | – | – | – | – | – | 8 (≈ 7.05 µM) | 0.06 (≈ 0.0529 µM) | 16 (≈ 14.1 µM) | 0.5 (≈ 0.441 µM) | 2 (≈ 1.76 µM) | 8 (≈ 7.05 µM) | 0.25 (≈ 0.22 µM) | 2 (≈ 1.76 µM) | 1 (≈ 0.882 µM) | 0.25 (≈ 0.22 µM) | 0.06 (≈ 0.0529 µM) | 0.25 (≈ 0.22 µM) | MIC K. pneumoniae ATCC 4352 (Klebsiella pneumoniae): 0.125 mg/L (≈ 0.11 µM); MIC E. coli NCTC 9001 (Escherichia coli): 0.03 mg/L (≈ 0.0264 µM); MIC P. aeruginosa CCUG 59347 (Pseudomonas aeruginosa): 0.5 mg/L (≈ 0.441 µM) |
| CC(C)C[C@@H]1NC(=O)[C@@H](CC2CCCCC2)NC(=O)[C@H](CCN)NC(=O)[C@@H](NC(=O)[C@H](CN)NC(=O)[C@@H](NC(=O)C(CCN)Cc2cccc(F)c2)C(C)O)CCNC(=O)[C@H]([C@@H](C)O)NC(=O)[C@H](CCN)NC(=O)[C@H](CCN)NC1=O (single isomer, unassigned; isomer 2) [Example 45, 4-amino-2-(3-fluorobenzyl) butanoyl L-Thr-L-Dap-polymyxin [D-cyclohexylalanine]-6 heptapeptide. isomer 2] | – | – | – | – | – | – | – | – | 64 (≈ 55.7 µM) | 0.25 (≈ 0.218 µM) | 16 (≈ 13.9 µM) | 1 (≈ 0.871 µM) | 4 (≈ 3.48 µM) | 16 (≈ 13.9 µM) | 0.25 (≈ 0.218 µM) | 1 (≈ 0.871 µM) | 1 (≈ 0.871 µM) | 0.125 (≈ 0.109 µM) | 0.25 (≈ 0.218 µM) | 0.25 (≈ 0.218 µM) | MIC A. baumanii 053 (Acinetobacter baumannii): 64 mg/L (≈ 55.7 µM); MIC E. coli NCTC 9001 (Escherichia coli): 0.06 mg/L (≈ 0.0522 µM); MIC P. aeruginosa CCUG 59347 (Pseudomonas aeruginosa): 0.25 mg/L (≈ 0.218 µM) |
